From patent publication US20180207148A1 (priority 2015, published 2018)
Read-outs that look alike come from different tables or passages of the source.

What was measured:
[1] = Cardiovascular safety pharmacology in dogs; type: in vivo, dog; settings: Compound A administered alone
[2] = CNS safety pharmacology study in rats; type: in vivo, rat; settings: Compound A administered alone
[3] = clinical; settings: human, in vivo
Protocol: (§1) A 2-part study was conducted in subjects with advanced/metastatic or recurrent gastric cancer. […] A total of 56 subjects enrolled in this study: 10 subjects with advanced malignant tumors in Part 1 and 46 subjects with advanced gastric cancer in Part 2.

[4] = Paclitaxel pharmacokinetics in rats after single oral dose with Compound A; settings: rat, in vivo
[5] = clinical; settings: human, in vivo; remark: listed apart in the source
[6] = clinical; settings: human, in vivo, oral
Description: No premedication was allowed during this treatment sequence.

[7] = for CL/F: po
[8] = in vivo; settings: dog, po, 6 mg/kg, paclitaxel 6 mg/kg with Compound A 3 mg/kg, single oral dose; for AUC(0-t): AUClast; for half-life: t1/2, dogs
[9] = dogs; for CL/F: paclitaxel 6 mg/kg with Compound A 3 mg/kg, single oral dose
[10] = system: transplanted human tumor cell lines; test: Seven in vivo experiments, human tumor transplant cell lines in mice (overall); set-up: species or system mouse; settings: paclitaxel administered IP or IV, compared with oral combination
Protocol: In these studies, tumor inhibition rate (IR %) was calculated as ([1-relative tumor growth in treated group/relative tumor growth in control group]×100). Tumor regression was calculated as (Mean Tumor WeightEnd of treatment/Mean tumor WeightBeginning of treatment)×100. Therefore, a value <100% for tumor regression indicates a decrease in tumor weight over the course of the study and a value >100% indicates an increase in tumor weight. Tumor growth delay was calculated as the median number of days to reach two tumor mass doublings.

[11] = human, in vivo
Protocol: as §1

[12] = Paclitaxel pharmacokinetics in dogs after single oral dose with Compound A; settings: dog, in vivo

COc1cc2c(cc1OC)CN(CCc1ccc(-n3nnc(-c4cc(OC)c(OC)cc4NC(=O)c4cc(=O)c5ccccc5o4)n3)cc1)CC2.CS(=O)(=O)O.O [Compound A]
reductions in PR and QRS intervals [1]: absence
reductions in body temperature [2]: absence

CC(=O)O[C@H]1C(=O)[C@@]2(C)[C@H]([C@H](OC(=O)c3ccccc3)[C@]3(O)C[C@H](OC(=O)[C@H](O)[C@@H](NC(=O)c4ccccc4)c4ccccc4)C(C)=C1C3(C)C)[C@]1(OC(C)=O)CO[C@@H]1C[C@@H]2O [Paclitaxel, 5,20-Epoxy-1,2,4,7,10-13-hexahydroxytax-11-en-9-one-4,10-diacetate 2-benzoate 13-ester with (2R,3S)—N-benzoyl-3-phenylisoserine]
half-life ([3]; oral): 18.3 to 19.7 h
AUC(0-t) ([3]; oral, AUC0-24, range across dose levels, Day 1): 0.611 to 0.894 µg·h/mL
AUC(0-t) ([3]; oral, AUC0-24, range across dose levels, Day 2): 0.735 to 1.08 µg·h/mL
Cmax ([3]; oral, Cmax, range across dose levels, Day 1): 0.202 to 0.28 µg/mL
Cmax ([3]; oral, Cmax, range across dose levels, Day 2): 0.159 to 0.315 µg/mL
Cmax ([3]; po, 90 mg/m2, Paclitaxel Cmax, Mean (SD), 90 mg/m^2, Day 1, N 2, two consecutive daily oral doses): 0.202 µg/mL
Cmax ([3]; po, 90 mg/m2, Paclitaxel Cmax, Mean (SD), 90 mg/m^2, Day 2, N 2, two consecutive daily oral doses): 0.315 µg/mL
Cmax ([3]; po, 120 mg/m2, Paclitaxel Cmax, Mean (SD), 120 mg/m^2, Day 2, N 3, two consecutive daily oral doses): 0.159 µg/mL
AUC(0-t) ([3]; po, 150 mg/m2): 0.894 µg·h/mL
Cmax ([3]; po, 150 mg/m2): 0.251 µg/mL
Cmax ([3]; po, 150 mg/m2, Paclitaxel Cmax, Mean (SD), 150 mg/m^2, Day 2, N 3, two consecutive daily oral doses): 0.276 µg/mL
AUC(0-t) ([4]; 5 mg/kg): 0.333 µg·h/mL
Cmax ([4]; 5 mg/kg): 0.103 µg/mL
Tmax ([4]; 5 mg/kg): 0.6 h
AUC(0-t) ([4]; 10 mg/kg): 1.03 µg·h/mL
Cmax ([4]; 10 mg/kg): 0.356 µg/mL
Tmax ([4]; 10 mg/kg): 0.7 h
AUC(0-t) ([4]; 20 mg/kg): 3.01 µg·h/mL
Cmax ([4]; 20 mg/kg): 0.852 µg/mL
Tmax ([4]; 20 mg/kg): 1.2 h
AUC(0-t) ([4]; 30 mg/kg): 6.64 µg·h/mL
Cmax ([4]; 30 mg/kg): 1.76 µg/mL
Tmax ([4]; 30 mg/kg): 1.2 h
half-life ([4]; 30 mg/kg): 6 h
AUC(0-t) ([4]; 40 mg/kg): 11.1 µg·h/mL
Cmax ([4]; 40 mg/kg): 2.49 µg/mL
Tmax ([4]; 40 mg/kg): 1.5 h
half-life ([4]; 40 mg/kg): 5.5 h
AUC(0-t) ([4]; 50 mg/kg): 13.1 µg·h/mL
Cmax ([4]; 50 mg/kg): 3.07 µg/mL
half-life ([4]; 50 mg/kg): 5.3 h
half-life [5]: 19.9 to 32.1 h
AUC(0-inf) ([5]; po, 60 mg/m2): 0.727 µg·h/mL
AUC(0-t) ([5]; po, 60 mg/m2): 0.584 µg·h/mL
Cmax ([5]; po, 60 mg/m2): 0.15 µg/mL
MRT inf ([5]; po, 60 mg/m2): 28.6 h
Vd/F ([5]; po, 60 mg/m2): 9130 L
half-life ([5]; po, 60 mg/m2): 32.1 h
AUC(0-inf) ([5]; po, 120 mg/m2): 1.84 µg·h/mL
AUC(0-t) ([5]; po, 120 mg/m2): 1.61 µg·h/mL
CL renal ([5]; po, 120 mg/m2): 50 mL/min
MRT inf ([5]; po, 120 mg/m2): 17 h
Vd/F ([5]; po, 120 mg/m2): 4040 L
half-life ([5]; po, 120 mg/m2): 22 h
AUC(0-inf) ([5]; po, 180 mg/m2): 1.99 µg·h/mL
AUC(0-t) ([5]; po, 180 mg/m2): 1.67 µg·h/mL
CL renal ([5]; po, 180 mg/m2): 30 mL/min
Cmax ([5]; po, 180 mg/m2): 0.432 µg/mL
MRT inf ([5]; po, 180 mg/m2): 21.9 h
Vd/F ([5]; po, 180 mg/m2): 6030 L
half-life ([5]; po, 180 mg/m2): 24.4 h
AUC(0-inf) ([5]; po, 240 mg/m2): 2.97 µg·h/mL
AUC(0-t) ([5]; po, 240 mg/m2): 2.55 µg·h/mL
CL renal ([5]; po, 240 mg/m2): 40 mL/min
Cmax ([5]; po, 240 mg/m2): 0.51 µg/mL
MRT inf ([5]; po, 240 mg/m2): 23.4 h
Vd/F ([5]; po, 240 mg/m2): 6010 L
half-life ([5]; po, 240 mg/m2): 25.7 h
AUC(0-inf) ([5]; po, 300 mg/m2): 3.48 µg·h/mL
AUC(0-t) ([5]; po, 300 mg/m2): 3.14 µg·h/mL
CL renal ([5]; po, 300 mg/m2): 33.3 mL/min
Cmax ([5]; po, 300 mg/m2): 0.92 µg/mL
MRT inf ([5]; po, 300 mg/m2): 16.2 h
Vd/F ([5]; po, 300 mg/m2): 4930 L
half-life ([5]; po, 300 mg/m2): 21.2 h
AUC(0-inf) ([5]; po, 360 mg/m2): 2.85 µg·h/mL
AUC(0-t) ([5]; po, 360 mg/m2): 2.51 µg·h/mL
CL renal ([5]; po, 360 mg/m2): 122 mL/min
MRT inf ([5]; po, 360 mg/m2): 18.7 h
Vd/F ([5]; po, 360 mg/m2): 6840 L
half-life ([5]; po, 360 mg/m2): 20.8 h
AUC(0-inf) ([5]; po, 420 mg/m2): 3.73 µg·h/mL
AUC(0-t) ([5]; po, 420 mg/m2): 3.41 µg·h/mL
CL renal ([5]; po, 420 mg/m2): 48.3 mL/min
MRT inf ([5]; po, 420 mg/m2): 14.7 h
Vd/F ([5]; po, 420 mg/m2): 7180 L
half-life ([5]; po, 420 mg/m2): 19.9 h
bioavailability [6]: ~13.4%
Mean apparent clearance (CL/F) ([7]; human, in vivo): up to 244.9 L/h
CL/F ([7]; human, in vivo, 60 mg/m2): 178.4 L/h
CL/F ([7]; human, in vivo, 180 mg/m2): 173.4 L/h
CL/F ([7]; human, in vivo, 240 mg/m2): 147.6 L/h
CL/F ([7]; human, in vivo, 360 mg/m2): 228.7 L/h
CL/F ([7]; human, in vivo, 420 mg/m2): 244.9 L/h
MTD ([7]; oral paclitaxel 60 to 420 mg/m^2 on days 1, 8 and 15 of 28-day cycle with Compound A): not reached
overall toxicity profile ([7]; orally administered in combination with Compound A, neutropenia the adverse event associated with discontinuation): consistent with that of paclitaxel
AUC(0-t) ([8]; dogs, Fasted): 1.6 ± 0.416 µg·h/mL
AUC(0-t) ([8]; dogs, Fed): 0.849 ± 0.12 µg·h/mL
Cmax ([8]; Cmax, dogs, Fed): 0.299 ± 0.0546 µg/mL
Tmax ([8]; dogs, Fasted): 0.5 h
Tmax ([8]; dogs, Fed): 0.7 ± 0.2 h
Vd/F ([8]; dogs, Fasted): 57.9 ± 17.4 L
Vd/F ([8]; dogs, Fed): 88 ± 19.6 L
half-life ([8]; Fasted): 9.4 ± 0.3 h
half-life ([8]; Fed): 9.9 ± 2.7 h
AUC, fasted group compared to fed group [9]: ~2 fold
Cmax, fasted group compared to fed group [9]: ~2 fold
CL/F ([9]; Fasted): 4.2 ± 1.2 L/h
CL/F ([9]; Fed): 6.4 ± 1.3 L/h
activity against transplanted human tumor cell lines [10]: generally less active
Overall exposure on Day 2, higher than Day 1 [11]: 20-30%
AUC(0-t) ([12]; 2 mg/kg): 0.413 µg·h/mL
Tmax ([12]; 2 mg/kg): 0.5 h
AUC(0-t) ([12]; 4 mg/kg): 1.33 µg·h/mL
Tmax ([12]; 4 mg/kg): 0.7 h
AUC(0-t) ([12]; 6 mg/kg): 2.12 µg·h/mL
Tmax ([12]; 6 mg/kg): 0.5 h
